In publication PMC7534389, “Thiazolidin-2-cyanamides derivatives as novel potent Escherichia coli β-glucuronidase inhibitors and their structure–inhibitory activity relationships” (Journal of Enzyme Inhibition and Medicinal Chemistry, 2020):
“And” between values parts separate entries of the source, which are not always exact repeats. Equal entries are not always repeated. Where two headings read alike, the source gives them in different places.

How the values were obtained:
[1] = target: T1, Escherichia coli β-glucuronidase (EcGUS) (Escherichia coli, UniProt P05804); assay: Inhibition kinetic analysis (Lineweaver–Burk plots, Ki) against EcGUS; type: biochemical; settings: for Ki: PNPG 0.2-1.0 mM, nonlinear regression; for Inhibition type: from intersection point in Lineweaver–Burk plots
T1 construct: inferred from the pET28a vector and Ni-NTA purification; made in house; host or cells: E. coli BL21 (DE3)
Method: To further characterise the inhibition behaviour of discovered inhibitors, multiple concentrations of compounds (0.5–12 µM) or DSL (50–100 µM) and PNPG (0.2, 0.3, 0.5, and 1.0 mM) were applied to determine the corresponding reaction rates. The inhibition type was evaluated through determining the intersection point in Lineweaver–Burk plots, and the Ki values were calculated by nonlinear regression of different inhibition types using the GraphPad Prism 6.0 (GraphPad Software, La Jolla, CA).
(§1) All experiments were carried out in triplicate and repeated at least two times. All data were expressed as mean ± standard deviation (SD). The IC50 values were defined as the concentration of inhibitor that is required for 50% inhibition and evaluated by nonlinear regression using GraphPad Prism 6.0 software (GraphPad Software, La Jolla, CA).

[2] = target: T1, Escherichia coli β-glucuronidase (EcGUS); assay: EcGUS-mediated PNPG hydrolysis inhibition assay (screening at 10 µM and IC50); type: biochemical
Method: EcGUS was prepared according to our previous report. The recombinant strain were incubated in 200 mL of LB broth (Tryptone, 10 g/L; yeast extract, 5 g/L; NaCl, 10 g/L; pH 7.0) containing 1% kanamycin at 220 rpm and 37 °C until OD600 reached 0.5–0.6. Afterward, IPTG (final concentration, 0.5 mM) was added and the culture was incubated at 220 rpm and 16 °C for 16 h to induce the expression of β-glucuronidase. The cells were collected by centrifugation and suspended in PBS buffer (pH 7.4), and then applied to extract the enzyme by sonication. Finally, pure EcGUS was obtained from the cell-free extracts through a Ni-NTA column (EMD Millipore Corp., MA, USA). Protein concentration was determined using the BCA Protein Assay Kit (Beyotime, Shanghai, China) according to the manufacturer’s instruction, and its purity was determined by SDS-PAGE.
Thirteen thiazolidin-2-cyanamide derivatives were subjected to screening for potent EcGUS inhibitor. The inhibitory effects of these compounds were determined by measuring the PNP formation generated from PNPG by EcGUS. Briefly, the assays were conducted in 96-well flat-bottomed tissue culture plates (Nunc, Denmark) with a total volume of 100 µL which consisted of 10 µL EcGUS (final concentration, 2 µg/mL), 70 µL PBS buffer (pH 7.4), 10 µL test compound or DSL (final concentration, 10 µM) and 10 µL PNPG (final concentration, 250 µM). DSL was used as a positive control, and 1%DMSO was used as blank control. All reactions were performed in triplicate and the produced PNP was monitored by measuring absorbance at 405 nm in a plate reader (SpectraMax Plus384, Molecular Devices, CA, USA) after incubating at 37 °C for 30 min. The PNP concentration was determined from a standard curve (0, 10, 20, 40, 60, 80, 100, 120 µM PNP) in PBS buffer (pH 7.4). Relative activity was defined as a percent of PNP formation in the presence of test compound within 30 min compared with the blank control group.
IC50 values of the 13 thiazolidin-2-cyanamide derivatives against EcGUS were investigated using similar assays as described in Section 2.4. The reaction conditions are as follows: 10 µL pure enzyme (final concentration, 2 µg/mL), 70 µL PBS buffer (pH 7.4), 10 µL test compound or DSL (final concentration, 0.001–5000 µM) and 10 µL PNPG (final concentration, 250 µM) incubating at 37 °C for 30 min. The IC50 values were calculated by plotting the concentration–response curve using GraphPad Prism 6.0 (GraphPad Software, La Jolla, CA).
as §1

EcGUS = settings: cited from earlier work
[3] = 10 µM compound, PNPG 250 µM, EcGUS 2 µg/mL, PBS pH 7.4, 37 °C, 30 min, read-out: Inhibition rate at 10 μM
[4] = PNPG 250 µM, EcGUS 2 µg/mL, PBS pH 7.4, 37 °C, 30 min
[5] = pH 7.4, read-out: Inhibition rate at 10 μM

T1 sequence (P05804 whole entry): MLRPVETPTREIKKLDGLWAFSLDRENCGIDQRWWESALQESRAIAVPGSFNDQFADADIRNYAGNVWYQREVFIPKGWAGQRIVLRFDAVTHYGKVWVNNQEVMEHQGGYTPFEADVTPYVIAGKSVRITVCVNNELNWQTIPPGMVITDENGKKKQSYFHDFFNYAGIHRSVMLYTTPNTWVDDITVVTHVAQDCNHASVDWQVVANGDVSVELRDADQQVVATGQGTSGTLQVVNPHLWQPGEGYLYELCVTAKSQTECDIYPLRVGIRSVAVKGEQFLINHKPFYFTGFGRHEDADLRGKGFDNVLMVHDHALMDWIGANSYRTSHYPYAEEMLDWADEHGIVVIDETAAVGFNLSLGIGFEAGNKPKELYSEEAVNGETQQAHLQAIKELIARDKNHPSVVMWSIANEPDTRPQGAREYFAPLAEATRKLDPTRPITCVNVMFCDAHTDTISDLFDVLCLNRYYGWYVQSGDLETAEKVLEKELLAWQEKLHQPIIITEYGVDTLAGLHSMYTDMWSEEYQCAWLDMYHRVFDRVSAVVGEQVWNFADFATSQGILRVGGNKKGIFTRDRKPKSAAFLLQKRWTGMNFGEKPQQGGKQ

SMILES | melting point [°C] | Ki [1] | Inhibition type [1] | inhibition at 10 µM [2, 3] [%] | IC50 [2, 4] [µM] | Inhibition type against EcGUS (EcGUS) | inhibition at 10 µM [2, 5] [%]
N#C/N=C1\SCCN1C(=O)c1ccc(-c2cccc(Cl)c2)o1 [Compound 2] | 166 to 167 | < 3.5 µM and 0.7 µM | competitive EcGUS inhibitors | 95.2 ± 0.3 | 1.2 ± 0.2 | – | –
N#C/N=C1\SCCN1C(=O)c1ccc(-c2ccc([N+](=O)[O-])cc2)o1 [Compound 9] | > 290 | – | – | 40.3 ± 3.2 | 22.2 ± 2.5 | – | –
N#C/N=C1\SCCN1C(=O)c1ccc(-c2ccc(F)cc2F)o1 [Compound 6] | 140 to 141 | – | – | 43.9 ± 0.7 | 23.1 ± 1.5 | – | –
CCOC(=O)/C=C/c1ccc(O)c(O)c1 [caffeic acid ethyl ester] | – | – | – | – | – | potent competitive inhibitors | –
CC(C)=CCc1c(-c2ccc(O)cc2O)oc2c([C@H]3C=C(C)C[C@@H](c4ccc(O)cc4O)[C@@H]3C(=O)c3ccc(O)cc3O)c(O)cc(O)c2c1=O [kuwanon G] | – | – | – | – | – | mixed-type inhibition | –
Clc1ccc2c(c1)C(N1CCNCC1)=Nc1ccccc1O2 [amoxapine] | – | – | – | – | – | uncompetitive inhibition | –
O=C(O)[C@@H](O)[C@H]1OC(=O)[C@H](O)[C@H]1O [D-Saccharic acid 1,4-lactone, D-saccharic acid-1,4-lactone, reference compound] | – | 30.9 ± 2.2 µM | mixed inhibitors | – | 67.3 ± 0.6 | – | 11.6 ± 0.6
N#C/N=C1\SCCN1C(=O)c1ccc(-c2ccccc2[N+](=O)[O-])o1 [Compound 8] | 135 to 136 | – | – | – | < 10 | – | 31.4 ± 1.8
Cc1ccc(-c2ccc(C(=O)N3CCS/C3=N\C#N)o2)cc1 [Compound 11] | 151 to 152 | – | – | 33.5 ± 2.5 | 22.3 ± 2.6 | – | –
N#C/N=C1\SCCN1C(=O)c1ccc(-c2c(F)cccc2F)o1 [Compound 7] | 136 to 137 | – | – | 64.1 ± 1.2 | 9.3 ± 1.1 | – | –
N#C/N=C1\SCCN1C(=O)c1ccc(-c2ccc(F)cc2)o1 [Compound 5] | 129 to 130 | – | – | 66.5 ± 1.2 | 7.3 ± 0.7 | – | –
O=c1cc(-c2ccc(O)cc2)oc2cc(O)c(O)c(O)c12 [Scutellarein] | – | – | – | – | – | potent competitive inhibitors | –
N#C/N=C1\SCCN1C(=O)c1ccc(-c2ccc(Br)cc2)o1 [Compound 10] | 169 to 170 | – | – | 68.7 ± 1.8 | 10.8 ± 0.2 | – | –
CC(C)=CC[C@]12Oc3cc(O)c([C@H]4C=C(C)C[C@H](c5ccc(O)cc5O)[C@H]4C(=O)c4ccc(O)cc4O)c(O)c3C(=O)[C@@]1(O)Oc1cc(O)ccc12 [sanggenon C] | – | – | – | – | – | mixed-type inhibition | –
N#C/N=C1\SCCN1C(=O)c1ccc(-c2ccccc2)o1 [Compound 13] | 143 to 144 | – | – | 61.8 ± 1.3 | 10.7 ± 0.5 | – | –
COc1ccc(-c2ccc(C(=O)N3CCS/C3=N\C#N)o2)cc1 [Compound 12] | 151 to 152 | – | – | 49.6 ± 0.6 | 18.5 ± 2.1 | – | –
N#C/N=C1\SCCN1C(=O)c1ccc(-c2ccc(Cl)cc2)o1 [Compound 3] | 149 to 150 | < 3.5 µM and 2 µM | competitive EcGUS inhibitors | 80.2 ± 1.8 | 4.7 ± 0.6 | – | –
N#C/N=C1\SCCN1C(=O)c1ccc(-c2ccccc2Cl)o1 [Compound 1] | 101 to 102 | < 3.5 µM and 3.5 µM | competitive EcGUS inhibitors | 77.2 ± 0.6 | 5.7 ± 0.6 | – | –
N#C/N=C1\SCCN1C(=O)c1ccc(-c2ccccc2F)o1 [Compound 4] | 137 to 138 | – | – | 61.6 ± 0.6 | 11.9 ± 1.5 | – | –
